Test results taken from US9340577B2, “HLA binding motifs and peptides and their uses” (priority 1992, dated 2016).
No end group written: not given here.

Experiments:
Assay in all cases: biochemical
DRB1*0901 = DRB1*0901 (Homo sapiens, UniProt P01903+P01911, A100R/A103E/D57H/D86V/F55Y/F60I/F76Y/I96F/K127E/L162R/M171V/P40D/Q125H/Q99R/R33Q/R42F/S133A/S66N/T210M/V115G/W38K/Y107V/Y59G/Y89S); assay type: binding
DRB5*0101 = DRB5*0101 (Homo sapiens, UniProt P01903+Q30154); conditions: Binding affinity DRB5 *0101
DR1 (DRB1*0101) = DR1 (DRB1*0101) (Homo sapiens, UniProt P01903+P01911, A100R/D57E/F55L/F60I/F76Y/I96L/L162R/M171V/P40L/Q125E/R42F/V115G/Y59C); assay type: binding
DRB1*0802 = DRB1*0802 (Homo sapiens, UniProt P01903+P01911, A100R/A103L/A169T/F76Y/H45Y/I96F/K41T/L162R/M171V/P40S/Q125H/Q178H/Q39Y/Q99D/R218S/R42G/S66Y/V115G/W38E); assay type: binding
DRB4*0101 = DRB4*0101 (Homo sapiens, UniProt P01903+P13762, G164S); assay type: binding
DR4w4 (DRB1*0401) = DR4w4 (DRB1*0401) (Homo sapiens, UniProt P01903+P01911, A100K/A169T/F76Y/I96L/K127E/L162R/M171V/N62H/P40V/Q125Y/R42H/S133A/S149N/S66Y/V115G/V209L/W38E); assay type: binding
DRB1*1101 = DRB1*1101 (Homo sapiens, UniProt P01903+P01911, A100R/A169T/A87E/I96F/K41T/L162R/M171V/P40S/Q125H/Q178H/Q39Y/Q99D/R42S/S66Y/T262R/V115G/W38E); conditions: Binding affinity DRB1 *1101
DRB1*1302 = DRB1*1302 (Homo sapiens, UniProt P01903+P01911, A100E/A169T/K41T/L162R/M171V/P40S/Q125H/Q178H/Q39Y/Q99D/R42S/S66N/T262R/V115G/W38E/Y61H); assay type: binding
DRB1*1501 = DRB1*1501 (Homo sapiens, UniProt P01903+P01911); assay type: binding
DR7 (DRB1*0701) = DR7 (DRB1*0701) (Homo sapiens, UniProt P01903+P01911, A100R/A102G/A103Q/D57E/D86V/E43K/F76Y/K127E/L162R/M171V/P40G/Q125H/Q99D/R33Q/R42Y/R54Q/S133A/S66F/T210M/V115G/Y107V/Y59L/Y89S); assay type: binding
A*0202 = A*0202 (Homo sapiens, UniProt P04439, D140Y/D185E/D98H/E176V/E277Q/G131W/G231S/I119L/I121R/I166T/I218V/L180W/L300P/L318F/N151K/N90K/P208A/P217A/Q67R/Q86G/Q94H/R138H/R169H/T345S); assay type: binding
HLA-A*0201 (HLA-A2.1) = HLA-A*0201 (HLA-A2.1) (Homo sapiens, UniProt P04439, D140Y/D185E/D98H/E176V/E277Q/G131W/G231S/I119V/I121R/I166T/I218V/L300P/L318F/N151K/N90K/P208A/P217A/Q86G/Q94H/R138H/R169H/T345S); assay type: binding
A*6802 = A*6802 (Homo sapiens, UniProt P04439, A269V/D140Y/D185E/E176V/E277Q/E87N/F33Y/G231S/I121R/I166T/I218V/L180W/L300P/L318F/N151K/P208A/P217A/Q86R/R138H/R169H/S129P/T345S/V36M); assay type: binding
A*0206 = A*0206 (Homo sapiens, UniProt P04439, D140Y/D185E/D98H/E176V/E277Q/F33Y/G131W/G231S/I119V/I121R/I166T/I218V/L300P/L318F/N151K/N90K/P208A/P217A/Q86G/Q94H/R138H/R169H/T345S); assay type: binding

DRB1*1302, sequence (P01903 26-254 limits assumed, other chains not shown): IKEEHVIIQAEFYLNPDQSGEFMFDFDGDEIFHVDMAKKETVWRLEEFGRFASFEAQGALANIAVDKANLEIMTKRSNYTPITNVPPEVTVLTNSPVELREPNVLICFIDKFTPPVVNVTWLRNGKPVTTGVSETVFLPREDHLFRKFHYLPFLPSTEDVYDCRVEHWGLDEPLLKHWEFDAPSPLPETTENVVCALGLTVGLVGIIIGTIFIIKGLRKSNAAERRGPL
DRB1*1101, sequence (P01903 26-254 limits assumed, other chains not shown): as above

In the case of LVQLKCPPLLITSNI [Peptide 89.0021], the IC50 (DRB1*0901) is reported as > 20000 nM, the IC50 (DRB5*0101) is reported as > 20000 nM and the IC50 (DR1 (DRB1*0101)) is reported as 72 nM. For the same sequence, the IC50 (DRB1*0802) was > 20000 nM, the IC50 (DRB4*0101) was 234 nM and the IC50 (DR4w4 (DRB1*0401)) was 4290 nM. For the same sequence, the IC50 (DRB1*1101) was > 20000 nM.
Sequence NKALQAIELQLTLET [Peptide 89.0151] has an IC50 (DRB1*0901) of 16800 nM, an IC50 (DRB5*0101) of 462 nM and an IC50 (DR1 (DRB1*0101)) of 80 nM. The IC50 (DRB4*0101) was 32 nM, the IC50 (DRB1*1302) was 1800 nM and the IC50 (DRB1*1501) was > 20000 nM. For the same sequence, the IC50 (DR7 (DRB1*0701)) was 1200 nM.
With QQHTQELFV [Peptide 9013.0078] the IC50 (A*0202) was 5290 nM, the IC50 (HLA-A*0201 (HLA-A2.1)) was 2480 nM and the IC50 (A*6802) was > 20000 nM.
Sequence QYIKANSSFIGITE has an IC50 (DR4w4 (DRB1*0401)) of 13 nM.
RLLLTASLLV [Peptide 9013.0117] gave an IC50 (A*0202) of 123 nM, an IC50 (HLA-A*0201 (HLA-A2.1)) of 57 nM and an IC50 (A*6802) of 5940 nM.
With RLTVSKLMSQLLNIP [Peptide 89.0100] the IC50 (DRB1*0901) was > 20000 nM, the IC50 (DRB5*0101) was > 20000 nM and the IC50 (DRB1*0802) was > 20000 nM. For the same sequence, the IC50 (DRB4*0101) was 4820 nM, the IC50 (DRB1*1302) was 7.3 nM and the IC50 (DRB1*1501) was > 20000 nM. The IC50 (DR7 (DRB1*0701)) was 4990 nM and the IC50 (DRB1*1101) was > 20000 nM.
In the case of RTLHDLCQA [Peptide 1481.46], the IC50 (A*6802) is reported as > 20000 nM.
STQELFIPNV [Peptide 9013.0181] gave an IC50 (A*0202) of 2100 nM, an IC50 (HLA-A*0201 (HLA-A2.1)) of 5500 nM and an IC50 (A*6802) of 854 nM.
SWGMVMLMLVRFKCA [Peptide 89.0044] was tested, and the IC50 (DRB1*0901) was > 20000 nM, the IC50 (DRB5*0101) was 5060 nM and the IC50 (DR1 (DRB1*0101)) was 4890 nM. It also gave an IC50 (DRB1*0802) of 9990 nM, an IC50 (DRB4*0101) of 1440 nM and an IC50 (DRB1*1302) of 975 nM. The IC50 (DR4w4 (DRB1*0401)) was 3380 nM and the IC50 (DR7 (DRB1*0701)) was > 20000 nM.
For TLHDLCQAL [Peptide 1481.47], the IC50 (A*6802) was > 20000 nM.
In the case of TNCMLIQPPKLRSTA [Peptide 89.0046], the IC50 (DRB1*0901) is reported as > 20000 nM, the IC50 (DRB4*0101) is reported as 479 nM and the IC50 (DRB1*1302) is reported as 5100 nM. The IC50 (DRB1*1501) was 5120 nM, the IC50 (DR7 (DRB1*0701)) was 1120 nM and the IC50 (DRB1*1101) was 1090 nM.
For TQQATPGPV [Peptide 9013.0027], the IC50 (HLA-A*0201 (HLA-A2.1)) was > 20000 nM, the IC50 (A*6802) was > 20000 nM and the IC50 (A*0206) was 5870 nM.
TTAKLTIESV [Peptide 9013.0125] was tested, and the IC50 (A*0202) was 4070 nM, the IC50 (HLA-A*0201 (HLA-A2.1)) was > 20000 nM and the IC50 (A*6802) was 53 nM.
In the case of VTAKELKFV [Peptide 1418.24], the IC50 (A*6802) is reported as > 20000 nM.
For WLNYTPGPGI [Peptide 73.0129], the IC50 (A*0206) was > 20000 nM.
With YLLHVIKSDL [Peptide 9013.0152] the IC50 (A*0202) was 22 nM, the IC50 (HLA-A*0201 (HLA-A2.1)) was 86 nM and the IC50 (A*0206) was 62 nM.
Sequence YTNWKFIYL [Peptide 1578.47] has an IC50 (A*6802) of 146 nM and an IC50 (A*0206) of 84 nM.
YVVWDSIYYI [Peptide 1578.52] was tested, and the IC50 (A*0202) was 127 nM, the IC50 (HLA-A*0201 (HLA-A2.1)) was 77 nM and the IC50 (A*0206) was 49 nM.
